Holding throughout (format): cell-based, human
In assay [1] the test system is Bax. The experiment in a line: Western blot, Bax expression in HeLa cells. Particulars: 24 h, 2.5, 5, and 10 μM. The protocol: (§1) HeLa cells were cultured in 60 mm Petri dishes at a density of 1.0 × 10^6 cells per dish and treated with 0.1% DMSO (vehicle), positive control chalcone (20 μM), and different concentrations of compound 3k (2.5, 5, and 10 μM), respectively. Following a 24 and 48 h incubation period, the cells were harvested via centrifugation and subsequently washed twice with PBS that had been chilled to 0 °C. Next, the cells were homogenized using RIPA lysis buffer (Solarbio, Beijing, China) and supplemented with 1% PMSF (MP Biomedicals, 0754-25G, CAS:329-98-6, Santa Ana, CA, USA) and 1% mixed phosphatase inhibitor (Solarbio, Beijing, China). […]
(§2) Subsequently, the protein concentrations were determined utilizing a BCA Protein Assay Kit (Solarbio, China). An equivalent quantity of the proteins (12 μg) was fractionated via 8–12% sodium dodecyl sulfate–polyacrylamide gel electrophoresis (SDS-PAGE) and transferred onto nitrocellulose membranes (Amersham Biosciences, Amersham, UK). […] The blots were subsequently visualized using enhanced chemiluminescence (Biosharp, Shanghai, China) and detected utilizing a PE 0723 imager (ProteinSimple, Silicon Valley, CA, USA). Each experiment was conducted in triplicate at minimum and analyzed employing Image J software (V1.8.0.112). β-actin(ab198991) rabbit mAb, goat anti-rabbit IgG (H + L) HRP—#S0001 (Affinity). […]
Background: A western blot detects proteins with antibodies after separation by electrophoresis.

Assay [2] relates to Bcl-2. The experiment in a line: Western blot, Bcl-2 expression in HeLa cells. The settings on record: 24 h, 5 and 10 μM. The protocol:
as §1, §2

Assay [3] has as its system Bax. Put plainly: Western blot, Bax expression in HeLa/DDP cells. Particulars: 24 h, 5 and 10 μM. The method, then: as §1, §2
In assay [4] the test system is Bcl-2. The experiment in a line: Western blot, Bcl-2 expression in HeLa/DDP cells. Particulars: 24 h, 2.5, 5, and 10 μM. The protocol: as §1, §2
In assay [5] the test system is P-gp. Put plainly: Western blot, P-gp expression in HeLa/DDP cells. The settings on record: 48 h, 0.25, 0.5, or 1 μM.
Assay [6] concerns HeLa/DDP cells. Put plainly: Rhodamine 123 accumulation in HeLa/DDP cells. Particulars: 48 h, 0.5 and 1 μM. The method, then:
The experimental procedure involved the addition of 1 drop of PBS to each well of a 12-well plate, followed by the placement of cell crawlers and removal of excess PBS. HeLa/DDP cells were then plated at a concentration of 1.5 × 10^5 cells/mL, with 1 mL per well, and cultured for a duration of 24 h. A blank control group was established alongside a positive group treated with verapamil (6 μM) and an intervention group treated with 3k (0.25, 0.5, and 1 μM) for a duration of 48 h. The drug-containing culture medium was subsequently washed with PBS three times, with each wash lasting 5 min. The Rh123 master mix was diluted with culture medium to create a 20 μM Rh123 buffer, which was subsequently incubated at a temperature of 37 °C for a duration of 1 h. Following this incubation period, the Rh123 buffer was removed, and the cells were subjected to three consecutive washes with PBS, each lasting for 10 min. Subsequently, a fixation process was conducted using 4% paraformaldehyde at a volume of 1 mL per well, with a duration of 20 min. […] Subsequently, the side containing cells was affixed onto the liquid and made ready for measurement. The cells were then examined using a fluorescence microscope (Leica, Microsystems CMS GmbH, GER) equipped with a fluorescein filter, and the fluorescence intensity of each distinct group was assessed.

The test system of assay [7] is α-tubulin, β-tubulin in HeLa/DDP cells. Put plainly: Immunofluorescence assay of microtubules, HeLa/DDP. The settings on record: 24 h, 3k 1, 2, and 4 μM, paclitaxel 2.0 μM. The protocol:
The cells were then fixed by adding 400 μL of 4% paraformaldehyde to each well and incubating for 30 min. 0.1% Triton was added at a volume of 400 μL per well and allowed to incubate for 10 min. Following this, goat serum (10%) was added at 400 μL per well and incubated for 40 min. Primary antibodies (α-tubulin, β-tubulin) were then incubated overnight at a temperature of 4 °C. Subsequently, secondary antibodies (α-mouse, β-rabbit) were incubated for 1.5 h. DAPI staining was performed at 400 μL per well for 5 min, followed by a wash with PBS. Cell climbing tablets were removed and inverted onto slides with sealer. Photographs were captured using a fluorescent inverted microscope.

Assay [8] has as its system α-/β-tubulins in HeLa cells. Put plainly: Western blot of polymerized and dissociated α-/β-tubulins, HeLa. Particulars: 24 h, versus control. The method, then: (§3) HeLa cells were cultured in 60 mm Petri dishes at a density of 1.0 × 10^6 cells per dish and treated with 0.1% DMSO (vehicle), positive control chalcone (20 μM), and different concentrations of compound 3k (2.5, 5, and 10 μM), respectively. Following a 24 and 48 h incubation period, the cells were harvested via centrifugation and subsequently washed twice with PBS that had been chilled to 0 °C. Next, the cells were homogenized using RIPA lysis buffer (Solarbio, Beijing, China) and supplemented with 1% PMSF (MP Biomedicals, 0754-25G, CAS:329-98-6, Santa Ana, CA, USA) and 1% mixed phosphatase inhibitor (Solarbio, Beijing, China). The resulting lysates were then incubated on ice for 30 min, intermittently vortexed every 5 min, and subsequently centrifuged at 12,000 rpm for 20 min to collect the supernatants.
(§4) Subsequently, the protein concentrations were determined utilizing a BCA Protein Assay Kit (Solarbio, China). An equivalent quantity of the proteins (12 μg) was fractionated via 8–12% sodium dodecyl sulfate–polyacrylamide gel electrophoresis (SDS-PAGE) and transferred onto nitrocellulose membranes (Amersham Biosciences, Amersham, UK). Following this, the membranes were obstructed with 5% nonfat dried milk in TBS containing 1% Tween-20 for a duration of 2 h at ambient temperature and were subjected to overnight incubation with specific primary antibodies (CST, Boston, MA, USA) at 4 °C. Following three washes in TBST, the membranes were subjected to incubation with the suitable HRP-conjugated secondary antibodies at ambient temperature for a duration of 2 h. The blots were subsequently visualized using enhanced chemiluminescence (Biosharp, Shanghai, China) and detected utilizing a PE 0723 imager (ProteinSimple, Silicon Valley, CA, USA). Each experiment was conducted in triplicate at minimum and analyzed employing Image J software (V1.8.0.112). β-actin(ab198991) rabbit mAb, goat anti-rabbit IgG (H + L) HRP—#S0001 (Affinity). Bax (ab289364), Bcl-2 (ab218123), MDR1/ABCB1 (E1Y7B) rabbit mAb #13342 (CST).
(§5) Polymerized and free microtubule proteins were extracted using the methods described in references, respectively. Following drug intervention, the cells were subjected to two washes with preheated microtubule protein buffer MTSB at 37 °C. Subsequently, 70 μL of MTSB was added, and the cells were lysed for 10 min at 37 °C in a constant temperature chamber shielded from light. The cells were then scraped with a spatula and centrifuged at 14,000 r/min for 10 min at room temperature. The resulting supernatant, which represented the free state microtubule protein suspension, was subsequently removed. The remaining precipitate was treated with RIPA lysis solution, followed by lysis on ice for a duration of 30 min. Subsequently, centrifugation was performed at a temperature of 4 °C and a speed of 12,000 revolutions per minute for a duration of 20 min. The resulting supernatant was collected as a suspension of polymerized microtubule protein. The Western blotting procedure was the same as in Section 3.3.4. α-Tubulin (DM1A) Mouse mAb#3873 (CST), β-Tubulin (D2N5G) Rabbit mAb #15115 (CST), CoraLite488-conjugated Goat Anti-Mouse lgG(H+L) (Proteintech); CoraLite488-conjugated Goat Anti-Rabbit lgG(H+L) (Proteintech); β-actin(ab198991) rabbit mAb, Goat Anti-Mouse IgG H&L (HRP) (ab6789); Goat anti-Rabbit IgG (H+L) HRP—#S0001 (Affinity).

For assay [9], the system named is α-/β-tubulins in HeLa/DDP cells. The experiment in a line: Western blot of polymerized and dissociated α-/β-tubulins, HeLa/DDP. The settings on record: versus control. The protocol: as §3, §4, §5

Consider 1 compound from PMC10707934, “Design and Synthesis of Novel α-Methylchalcone Derivatives, Anti-Cervical Cancer Activity, and Reversal of Drug Resistance in HeLa/DDP Cells” (Molecules, 2023).

Consider `COc1ccc(/C=C(\C)C(=O)c2ccc(Cl)c(Cl)c2)cc1OC` [Compound 3k, (E)-1-(3,4-Dichlorophenyl)-3-(3,4-dimethoxyphenyl)-2-methylprop-2-en-1-one], for which the “Bax expression versus control group” value in assay [1] is given as “significant upregulation”; in assay [3], “significant increase”. The “Bcl-2 expression versus control group” value in assay [2] is recorded as “downregulation”; in [4], “significantly downregulate”. In addition, the “expression of P-gp” value in assay [5] is reported as “remained unchanged”. In addition, in assay [6], the “average fluorescence intensity emitted by rhodamine 123” value is given as “notably greater than that of the control group”. Further, the “microtubule immunofluorescence (α green, β red)” value in assay [7] is “attenuation of the green and red fluorescence of the enclosed cells”. In addition, the “expression of dissociated state α and β microtubule proteins” value in assay [8] (3k 4 μM, colchicine 2 μM, paclitaxel 2.0 μM) is reported as “significant increase”; in assay [9] (24 h, 3k 4 μM, colchicine and paclitaxel 2.0 μM), “significant increase”. Moreover, the “expression of α and β microtubule proteins in the polymerized state” value in assay [8] (3k 2 and 4 μM, colchicine and paclitaxel 2.0 μM) is “significant decrease”. Moreover, the “expression of polymerized β microtubulin” value in [9] (24 h, 1, 2, and 4 μM) is given as “significant reduction”. For the same compound, in [9] (24 h, 2 and 4 μM), the “expression of polymerized α-microtubulin” value is listed as “significant decrease”.
